Results as given in PubChem BioAssay (NCI).
Where “and” joins values, the source holds several entries; their conditions need not be identical. Identical values can stand only once.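 Step 1: Grow cells in 96-well plates. Step 2: Expose to compound for 48 hours at 5 concentrations. Step 3: Interpolate endpoints linearly; if unreached, use highest concentration. GI50 marks 50% less growth. The concentration for full growth arrest is given as TGI.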

Legend:
Experiment in all cases: NCI-60 cell line screen, 48 h
HCT-116 colon = system: HCT-116 colon
HCC-2998 colon = system: HCC-2998 colon
SW-620 colon = system: SW-620 colon
A549 NSCLC = system: A549 NSCLC
SF-539 CNS = system: SF-539 CNS
MOLT-4 leukemia = system: MOLT-4 leukemia
HOP-92 NSCLC = system: HOP-92 NSCLC
KM12 colon = system: KM12 colon
OVCAR-4 ovarian = system: OVCAR-4 ovarian
SK-MEL-28 melanoma = system: SK-MEL-28 melanoma
SR leukemia = system: SR leukemia
MALME-3M melanoma = system: MALME-3M melanoma
SK-MEL-2 melanoma = system: SK-MEL-2 melanoma
MDA-MB-435 = system: MDA-MB-435
NCI-H460 lung = system: NCI-H460 lung
RXF 393 renal = system: RXF 393 renal
UACC-62 melanoma = system: UACC-62 melanoma
OVCAR-5 ovarian = system: OVCAR-5 ovarian
SNB-19 CNS = system: SNB-19 CNS
HS 578T breast = system: HS 578T breast
DU-145 prostate = system: DU-145 prostate
U251 CNS = system: U251 CNS
HCT-15 colon = system: HCT-15 colon
UACC-257 melanoma = system: UACC-257 melanoma
NCI-H23 lung = system: NCI-H23 lung
ACHN renal = system: ACHN renal
PC-3 prostate = system: PC-3 prostate
BT-549 breast = system: BT-549 breast
T-47D breast = system: T-47D breast
OVCAR-3 ovarian = system: OVCAR-3 ovarian
SF-295 CNS = system: SF-295 CNS
M14 melanoma = system: M14 melanoma
TK-10 renal = system: TK-10 renal
A498 renal = system: A498 renal
NCI-H226 lung = system: NCI-H226 lung
SF-268 CNS = system: SF-268 CNS
HL-60(TB) leukemia = system: HL-60(TB) leukemia
SNB-75 CNS = system: SNB-75 CNS
MCF7 breast = system: MCF7 breast
HOP-62 NSCLC = system: HOP-62 NSCLC
NCI-H522 lung = system: NCI-H522 lung
HT29 colon = system: HT29 colon
CCRF-CEM leukemia = system: CCRF-CEM leukemia
K-562 leukemia = system: K-562 leukemia
COLO 205 colon = system: COLO 205 colon
786-0 renal = system: 786-0 renal
MDA-MB-231 breast = system: MDA-MB-231 breast
SN12C renal = system: SN12C renal
CAKI-1 renal = system: CAKI-1 renal
SK-MEL-5 melanoma = system: SK-MEL-5 melanoma
RPMI-8226 leukemia = system: RPMI-8226 leukemia
UO-31 renal = system: UO-31 renal
OVCAR-8 ovarian = system: OVCAR-8 ovarian
NCI/ADR-RES ovarian = system: NCI/ADR-RES ovarian
LOX IMVI melanoma = system: LOX IMVI melanoma
IGROV1 ovarian = system: IGROV1 ovarian
SK-OV-3 ovarian = system: SK-OV-3 ovarian

CCCCCc1c(C)[nH]c(/C=C2\N=C(c3ccc[nH]3)C=C2Oc2ccccc2)c1C
GI50 (HCT-116 colon): 0.0228 µM
TGI (HCT-116 colon): 0.129 µM
GI50 (HCC-2998 colon): 0.0171 µM
TGI (HCC-2998 colon): 0.217 µM and 1 µM
GI50 (SW-620 colon): 0.0248 µM
GI50 (A549 NSCLC): 0.022 µM and 0.0117 µM
TGI (A549 NSCLC): 0.0569 µM and 0.0401 µM
GI50 (SF-539 CNS): 0.0242 µM and 0.0113 µM
TGI (SF-539 CNS): 0.0856 µM and 0.0387 µM
GI50 (MOLT-4 leukemia): 0.0254 µM and 0.013 µM
TGI (MOLT-4 leukemia): 0.355 µM and 0.0783 µM
GI50 (HOP-92 NSCLC): 0.0138 µM
TGI (HOP-92 NSCLC): 0.0577 µM and 0.0326 µM
GI50 (KM12 colon): 0.0113 µM
TGI (KM12 colon): 0.0494 µM and 0.0138 µM
GI50 (OVCAR-4 ovarian): 0.0113 µM
TGI (OVCAR-4 ovarian): 0.265 µM and 1.22 µM
GI50 (SK-MEL-28 melanoma): 0.0398 µM and 0.0211 µM
TGI (SK-MEL-28 melanoma): 0.192 µM and 0.101 µM
GI50 (SR leukemia): 0.0117 µM
GI50 (MALME-3M melanoma): 0.0424 µM and 0.0286 µM
TGI (MALME-3M melanoma): 0.204 µM and 0.115 µM
GI50 (SK-MEL-2 melanoma): 0.0179 µM and 0.0139 µM
TGI (SK-MEL-2 melanoma): 0.0402 µM and 0.0329 µM
GI50 (MDA-MB-435): 0.0218 µM
TGI (MDA-MB-435): 0.058 µM
GI50 (NCI-H460 lung): 0.0231 µM
TGI (NCI-H460 lung): 1.16 µM and 1.05 µM
GI50 (RXF 393 renal): 0.0172 µM and 0.0123 µM
TGI (RXF 393 renal): 0.157 µM and 0.0546 µM
GI50 (UACC-62 melanoma): 0.0161 µM and 0.0111 µM
TGI (UACC-62 melanoma): 0.0311 µM and 0.0274 µM
GI50 (OVCAR-5 ovarian): 0.0262 µM and 0.0109 µM
TGI (OVCAR-5 ovarian): 1.07 µM and 0.377 µM
GI50 (SNB-19 CNS): 0.0582 µM and 0.0387 µM
TGI (SNB-19 CNS): 1.46 µM and 1.44 µM
GI50 (HS 578T breast): 0.0213 µM and 0.0111 µM
TGI (HS 578T breast): 0.0925 µM and 0.0487 µM
GI50 (DU-145 prostate): 0.0177 µM
TGI (DU-145 prostate): 0.129 µM and 0.104 µM
GI50 (U251 CNS): 0.019 µM
TGI (U251 CNS): 0.104 µM and 0.0279 µM
GI50 (HCT-15 colon): 0.0196 µM
TGI (HCT-15 colon): 0.0798 µM and 0.0413 µM
GI50 (UACC-257 melanoma): 0.0454 µM and 0.03 µM
TGI (UACC-257 melanoma): 0.354 µM and 0.233 µM
GI50 (NCI-H23 lung): 0.0299 µM and 0.016 µM
TGI (NCI-H23 lung): 0.668 µM and 0.387 µM
GI50 (ACHN renal): 0.0173 µM
TGI (ACHN renal): 0.111 µM
GI50 (PC-3 prostate): 0.0306 µM
TGI (PC-3 prostate): 1.22 µM and 0.166 µM
GI50 (BT-549 breast): 0.0402 µM and 0.0283 µM
TGI (BT-549 breast): 0.538 µM and 1.05 µM
GI50 (T-47D breast): 0.0211 µM and 0.0147 µM
GI50 (OVCAR-3 ovarian): 0.0191 µM and 0.0122 µM
TGI (OVCAR-3 ovarian): 0.0642 µM and 0.0404 µM
GI50 (SF-295 CNS): 0.0244 µM
TGI (SF-295 CNS): 0.106 µM
GI50 (M14 melanoma): 0.0213 µM and 0.0103 µM
TGI (M14 melanoma): 0.0504 µM and 0.0322 µM
GI50 (TK-10 renal): 0.0446 µM and 0.0234 µM
TGI (TK-10 renal): 0.448 µM and 0.152 µM
GI50 (A498 renal): 0.0161 µM and 0.0127 µM
TGI (A498 renal): 0.069 µM and 0.0508 µM
GI50 (NCI-H226 lung): 0.0191 µM and 0.0745 µM
GI50 (SF-268 CNS): 0.0234 µM
TGI (SF-268 CNS): 1.24 µM and 1 µM
GI50 (HL-60(TB) leukemia): 0.0384 µM and 0.015 µM
TGI (HL-60(TB) leukemia): 0.343 µM and 0.0656 µM
GI50 (SNB-75 CNS): 0.0246 µM and 0.0175 µM
TGI (SNB-75 CNS): 0.0719 µM and 0.0559 µM
GI50 (MCF7 breast): 0.0326 µM
TGI (MCF7 breast): 0.442 µM and 1.05 µM
GI50 (HOP-62 NSCLC): 0.0322 µM and 0.0272 µM
TGI (HOP-62 NSCLC): 1.89 µM and 1.18 µM
GI50 (NCI-H522 lung): 0.0182 µM and 0.0181 µM
TGI (NCI-H522 lung): 0.101 µM and 0.168 µM
GI50 (HT29 colon): 0.0226 µM
TGI (HT29 colon): 1.37 µM and 1.3 µM
GI50 (CCRF-CEM leukemia): 0.00949 µM
TGI (CCRF-CEM leukemia): 1.21 µM and 2.16 µM
GI50 (K-562 leukemia): 0.0263 µM
TGI (K-562 leukemia): 3.41 µM
GI50 (COLO 205 colon): 0.0305 µM
TGI (COLO 205 colon): 0.193 µM and 0.0492 µM
GI50 (786-0 renal): 0.0172 µM and 0.0118 µM
TGI (786-0 renal): 0.0439 µM and 0.0457 µM
GI50 (MDA-MB-231 breast): 0.00556 µM
TGI (MDA-MB-231 breast): 0.0295 µM and 0.0181 µM
GI50 (SN12C renal): 0.0363 µM and 0.018 µM
TGI (SN12C renal): 0.232 µM and 0.144 µM
GI50 (CAKI-1 renal): 0.0233 µM
TGI (CAKI-1 renal): 0.0558 µM and 0.0404 µM
GI50 (SK-MEL-5 melanoma): 0.0167 µM and 0.0109 µM
TGI (SK-MEL-5 melanoma): 0.034 µM and 0.024 µM
GI50 (RPMI-8226 leukemia): 0.0222 µM
TGI (RPMI-8226 leukemia): 0.187 µM and 0.182 µM
GI50 (UO-31 renal): 0.0251 µM and 0.0104 µM
TGI (UO-31 renal): 0.109 µM and 0.024 µM
GI50 (OVCAR-8 ovarian): 0.0277 µM and 0.015 µM
TGI (OVCAR-8 ovarian): 0.138 µM and 0.0567 µM
GI50 (NCI/ADR-RES ovarian): 0.0486 µM and 0.0278 µM
TGI (NCI/ADR-RES ovarian): 0.255 µM and 0.174 µM
GI50 (LOX IMVI melanoma): 0.0143 µM
TGI (LOX IMVI melanoma): 0.0312 µM
GI50 (IGROV1 ovarian): 0.0391 µM and 0.0244 µM
TGI (IGROV1 ovarian): 1.49 µM and 1.23 µM
GI50 (SK-OV-3 ovarian): 0.0565 µM and 0.0309 µM
TGI (SK-OV-3 ovarian): 0.671 µM and 0.628 µM
